Starred links: 1 amine or outer side, 2 acyl side, 3 side chain; linkers in the order of their positions; H or OH if unused. Positions of bridges follow the written chain, without caps; N, C: chain ends. Non-standard residues stand in square brackets, D forms with d. Residues, ends and D or L forms follow the SMILES beside them. Lys(N3) = [N-]=[N+]=NCCCC[C@H](N)C(=O)O; AEEA = NCCOCCOCC(=O)O; CH2 = C([*:1])[*:2]
Tests used:
K-Ras^G12D (GDP) [1] = biological target: T1, K-Ras^G12D (GDP) (Homo sapiens, UniProt P01116, G12D); assay: TR-FRET competitive binding assay, K-Ras(G12D) loaded with GDP
T1 construct: His-SUMO-tagged human K-Ras resides 1-169 was expressed; His-SUMO (N, cleaved yes); made in house; host or cells: E. coli Rosetta 2 (DE3)

K-Ras(G12D) (GMPPNP) = biological target: T2, K-Ras(G12D) (GMPPNP) (Homo sapiens, UniProt P01116, G12D); assay: TR-FRET competitive binding assay, K-Ras(G12D) loaded with GMPPNP
T2 construct: His-SUMO-tagged human K-Ras resides 1-169 was expressed; His-SUMO (N, cleaved yes); made in house; host or cells: E. coli Rosetta 2 (DE3)

[2] = Cell homogenate stability assay; type: in vitro ADME
Description: Stability of peptides towards intracellular proteases can be evaluated using HeLa cell homogenate. Suspended HeLa cells at 1 million cells/mL are sonicated in bursts with a probe sonicator on ice until uniformly homogenized. The homogenate thus prepared is frozen and stored at −20° C. until use. The peptides are incubated with the homogenate at 1 million cells/mL and loss of the peptide with increasing time is quantified using LC-MS/MS. Briefly, the test peptide is incubated with the homogenate at 1 μM in final volume of 50 μL at 37° C. At 0, 10, 30, 60 and 120 min, the reactions are quenched with 150 μL solution of 80% (v/v) Acetonitrile in Methanol containing a known internal standard peptide. The quenched samples are centrifuged at 4000 rpm for 5 min at 10° C. and supernatants are injected for bioanalysis by liquid chromatography combined with tandem-mass spectrometer. […] In addition, pre-boiled homogenate (prepared by incubating homogenate for 30 min in boiling water) is also used as a negative control for each test peptide. The ke is first-order rate constant describing the disappearance of parent drug in the incubation and may be obtained from regressing the initial slope (ke=−(slope)) of the natural log of the analyte area/internal standard area (designated as C at an appointed time t) in C versus time (min) profile. The half-life (t½) is calculated as: […]

[3] = tested on: AsPC-1 (homozygous K-Ras(G12D)) cells; assay: Cellular phospho-ERK assay in AsPC-1 cells; type: cell-based
Description: The cellular K-Ras inhibitory activity was evaluated by phosphorylation levels of ERK1/2 in AsPC-1 (homozygous K-Ras(G12D)) cells. AsPC-1 cells (ATCC® CRL-1682™) were cultured in T175 flask in growth medium (RPMI 1640 Medium, GlutaMAX™ Supplement, HEPES (Gibco 72400-047) supplemented with 10% fetal bovine serum (Hyclone SH30071.03) and 1× Penicillin/Streptomycin (Gibco 15140-122). The cells were harvested in seeding medium (RPMI 1640 Medium, no phenol red (Gibco 11835-030) supplemented with 10% fetal bovine serum (Hyclone SH30071.03), 25 mM HEPES (Gibco 15630-080) and 1× Penicillin/Streptomycin (Gibco 15140-122) after 5 min of 0.25% Trypsin-EDTA (Gibco 25200-056) digestion and were seeded in 384-well tissue culture treated plate (Greiner 781091) at a density of 15,000 cells/25 μL/well, and incubated at 37° C., 5% CO2 overnight. […] Phosphorylated ERK and total ERK levels were detected by Alpha SureFire Ultra Multiplex pERK kit (PerkinElmer MPSU-PTERK) using […] and 5 μL donor bead mix, both prepared following the manufacturer's protocol. […] Ratio of pERK vs total ERK in each well was used as the final readout. Dose response curves and EC50 were analyzed using a 4-parameter logistic equation in GraphPad Prism software (GraphPad, San Diego, CA).

K-Ras(G12D) = K-Ras(G12D) (Homo sapiens, UniProt P01116, G12D); settings: cited from earlier work
ERK1/2 = settings: cited from earlier work
[4] = tested on: A427 cells (which contain the K-Ras(G12D) mutation); settings: dose-dependent manner; cited from earlier work
K-Ras^G12D (GDP) [5] = biological target: T1, K-Ras^G12D (GDP); assay: TR-FRET [K-Ras^G12D (GDP)] | EC50 (nM)

affinity for the GDP-loaded form of K-Ras (G12D) (K-Ras^G12D (GDP) [1])	affinity for the GTP-loaded form of K-Ras (G12D) (K-Ras(G12D) (GMPPNP))	proteolytic degradation of the macrocycle in a cell homogenate stability study [2]	Compound	inhibition of ERK phosphorylation in an AsPC-1 cell line [3]	mutant selectivity in SOS1-mediated GDP-GTP exchange (K-Ras(G12D); G12D against G12C and wild-type K-Ras)	inhibition of SOS1-mediated GDP-GTP exchange (K-Ras(G12D))	phosphorylation levels of ERK1/2 (ERK1/2)	cell proliferation of A427 cells [4]	EC50 (K-Ras^G12D (GDP) [5])
high affinity	weaker affinity	rapid proteolytic degradation	CC[C@H](C)[C@@H]1NC(=O)[C@H](Cc2ccc(O)cc2)NC(=O)[C@H](CC(C)C)NC(=O)[C@@H]2CCCN2C(=O)[C@@H](NN[C@@H](CCCNC(=N)N)C(=O)N[C@@H](CCCNC(=N)N)C(=O)N[C@@H](CCCNC(=N)N)C(=O)N[C@@H](CCCNC(=N)N)C(=O)CC=O)CSSC[C@@H](C(=O)N[C@@H](CCCNC(=N)N)C(=O)N[C@@H](CCCNC(=N)N)C(=O)N[C@@H](CCCNC(=N)N)C(=O)N[C@@H](CCCNC(=N)N)C(N)=O)NC(=O)[C@H](C(C)C)NC(=O)[C@@H]2CCCN2C(=O)[C@H](CC(=O)O)NC(=O)[C@H](Cc2ccc(O)cc2)NC(=O)[C@H](CO)NC1=O [KRpep-2d]	absence of biological activity	G12D-mutant selectivity against G12C and wild-type K-Ras variants	potently inhibited	reduced phosphorylation levels of ERK1/2	suppressed cell proliferation	
			CC[C@H](C)[C@@H]1NC(=O)[C@H](Cc2ccc(O)cc2)NC(=O)[C@H](CC(C)C)NC(=O)[C@@H]2CCCN2C(=O)[C@H](NC(=O)COCCOCCNC(=O)[C@H](CCCCN=[N+]=[N-])NC(=O)CNC(=O)[C@H](CCCCN)NC(=O)[C@H](CCCCN)NC(=O)[C@H](Cc2c[nH]c3ccccc23)NC(=O)[C@H](CCCCN)NC(=O)[C@H](CCSC)NC(=O)[C@H](CCCNC(=N)N)NC(=O)[C@H](CCCNC(=N)N)NC(=O)[C@H](CC(N)=O)NC(=O)[C@H](CCC(N)=O)NC(=O)[C@H](Cc2ccccc2)NC(=O)[C@H](Cc2c[nH]c3ccccc23)NC(=O)[C@@H](NC(=O)[C@H](CCCCN)NC(=O)[C@@H](NC(=O)[C@H](CCC(N)=O)NC(=O)[C@H](CCCNC(=N)N)NC(C)=O)[C@@H](C)CC)[C@@H](C)CC)CSCSC[C@@H](C(=O)N[C@@H](CCCNC(=N)N)C(N)=O)NC(=O)[C@H](C(C)C)NC(=O)[C@@H]2CCCN2C(=O)[C@H](CC(=O)O)NC(=O)[C@H](Cc2ccc(O)cc2)NC(=O)[C@H](CO)NC1=O [SEQ ID NO: 16] (Ac-RQIKIWFQNRRMKWKKG[Lys(N3)][AEEA][dC]PLYISYDPVCR-NH2; linker 20-30 via CH2)						400 nM

From patent publication US12365706B2, “Macrocyclic peptides as potent inhibitors of K-RAS G12D mutant” (Merck Sharp & Dohme LLC, priority 2019, dated 2025)
